# Test results as given in paper PMC11762577 (Materials Today Bio, 2025).
# Columns and labels:
# U87-MG cells = test: CCK-8 cell viability / cytotoxicity assay in U87-MG cells; type: cell-based, human; conditions: incubation with U87-MG cells for 24 h
# [1] = type: in vivo, BALB/c nude mice; conditions: orthotopic glioma nude mice; 2.5 mg/kg Dox equivalent every three days; n = 5
structure (smiles),measurement,setting,value
"COc1cccc2c1C(=O)c1c(O)c3c(c(O)c1C2=O)C[C@@](O)(C(=O)CO)C[C@@H]3O[C@H]1C[C@H](N)[C@H](O)[C@H](C)O1 [Dox, doxorubicin]","IC50 (equivalent Dox concentration), U87-MG cell viability",U87-MG cells,3.49 µg/mL
same,body weight of tumor-bearing mice,[1],decreased on day 12
